Results from the NIST ThermoML archive (doi:10.1016/j.jct.2004.08.004).
Values joined by “and” are separate entries in the source; they are usually repeats but may differ in a detail not shown here. Equal entries are not always repeated.

Conditions: Liquid, Transpiration method

CCCCCCCCCC#N [1-decanenitrile]
Conditions	vapor or sublimation pressure [kPa]
295.2 K	0.00359
298.3 K	0.00484
302.2 K	0.00692
305.6 K	0.00928
308.7 K	0.01188
311.7 K	0.01511
313.1 K	0.01667
315.2 K	0.01966
316.2 K	0.02172
319.2 K	0.02728
322.2 K	0.03317
326.3 K	0.04574

CCCCCCCCCCC#N [1-decylcyanide]
Conditions	vapor or sublimation pressure [kPa]
290.3 K	0.00062
298.2 K	0.00131
305.2 K	0.00255
307.2 K	0.00308
309.2 K	0.00374
310.2 K	0.00402
313.2 K	0.0051
314.2 K	0.00577
319.1 K	0.00834
319.2 K	0.00877
322.1 K	0.01069
322.2 K	0.0113
325.2 K	0.0144
325.3 K	0.01379
327.2 K	0.01646
328.2 K	0.01792
331.3 K	0.02254
332.2 K	0.02447
334.2 K	0.02763
337.2 K	0.03454
337.3 K	0.03505
340.3 K	0.04264

CCCCCCCCCCCCCCC#N [1-tetradecyl cyanide]
Conditions	vapor or sublimation pressure [kPa]
336.2 K	0.00105
339.2 K	0.00137
342.1 K	0.00176
345.2 K	0.00219
348.1 K	0.00287
351.2 K	0.00356
354.2 K	0.00459
357.2 K	0.00567
360.2 K	0.00704
363.2 K	0.00901
366.2 K	0.01122
369.1 K	0.0138
372.1 K	0.017

CCCCCCCCCCCCC#N [dodecanecarbonitrile]
Conditions	vapor or sublimation pressure [kPa]
301.2 K	0.00024
313.3 K	0.00075
318.1 K	0.0012
324.1 K	0.00205
327.2 K	0.0028
330.2 K	0.00364
333.1 K	0.00466
336.2 K	0.00594
339.2 K	0.00754
342.1 K	0.0095
345.2 K	0.01168
348.2 K	0.01466
351.2 K	0.01796
354.2 K	0.02244
357.2 K	0.02764
360.2 K	0.03471
363.2 K	0.04232

CCCCCCCCCCCCCCCCC#N [heptadecanenitrile]
Conditions	vapor or sublimation pressure [kPa]
348.2 K	0.00055
351.2 K	0.00072
354.2 K	0.00093
357.2 K	0.00117
360.2 K	0.00156
363.2 K	0.00201
366.2 K	0.00252
369.1 K	0.00316
372.1 K	0.00402
376.2 K	0.00532
379.2 K	0.00678
382.2 K	0.00824
385.2 K	0.01022

CCCCCCC#N [heptanenitrile]
Conditions	vapor or sublimation pressure [kPa]
280.2 K	0.02893
283.2 K	0.03746
286.2 K	0.04773
289.2 K	0.05977
292.2 K	0.07501
295.2 K	0.09393
298.2 K	0.1138
301.2 K	0.1417
304.2 K	0.1723
307.2 K	0.2092

CCCCCCCCCCCCCCCC#N [hexadecanenitrile]
Conditions	vapor or sublimation pressure [kPa]
345.1 K	0.00096
348.1 K	0.00128
351.2 K	0.00165
354.2 K	0.00212
357.2 K	0.00262
360.2 K	0.00342
363.2 K	0.00434
366.2 K	0.00532
369.2 K	0.00658
372.1 K	0.00826
376.2 K	0.0112
379.2 K	0.0136
382.2 K	0.01642

CCCCCCCCCCCC#N [n-dodecanenitrile]
Conditions	vapor or sublimation pressure [kPa]
298.2 K	0.00052
301.2 K	0.00071
306.1 K	0.00111
312.2 K	0.00186
315.1 K	0.00239
318.2 K	0.00323
319.2 K	0.0036
322.2 K	0.00462
325.2 K	0.0059
328.2 K	0.00742
331.2 K	0.00936
334.2 K	0.0117
337.2 K	0.01464
340.2 K	0.01821
343.2 K	0.02303
346.2 K	0.02783
349.2 K	0.03419
352.3 K	0.04237
355.3 K	0.05317
358.2 K	0.06363
361.2 K	0.07929
364.2 K	0.09431
367.1 K	0.1148

CCCCCCCCC#N [nonanenitrile]
Conditions	vapor or sublimation pressure
285.2 K	0.0039 kPa
286.2 K	0.00449 kPa
288.2 K	0.00519 kPa
290.2 K	0.0064 kPa
291.7 K	0.00714 kPa
293.2 K	0.00797 kPa
295.2 K	0.00992 kPa
296.2 K	0.01052 kPa
298.2 K	0.0124 kPa
299.2 K	0.0135 kPa
301.2 K	0.01585 kPa
302.2 K	0.01722 kPa
304.2 K	0.0198 kPa
305.2 K	0.02231 kPa
307.2 K	0.02482 kPa
308.2 K	0.02855 kPa
310.2 K	0.03154 kPa
311.2 K	0.03619 kPa
313.2 K	0.04037 kPa
316.2 K	0.05039 kPa and 0.05346 kPa
319.2 K	0.06245 kPa
320.2 K	0.06797 kPa
323.2 K	0.08366 kPa

CCCCCCCC#N [octanenitrile]
Conditions	vapor or sublimation pressure
283.2 K	0.01192 kPa
286.2 K	0.0152 kPa
289.2 K	0.01964 kPa
292.2 K	0.02498 kPa
295.2 K	0.03092 kPa
298.2 K	0.03898 kPa
301.2 K	0.04949 kPa and 0.04849 kPa
304.2 K	0.06148 kPa
307.1 K	0.07561 kPa
310.2 K	0.09243 kPa and 0.09473 kPa

CCCCCCCCCCCCCC#N [tetradecanenitrile]
Conditions	vapor or sublimation pressure [kPa]
327.2 K	0.00109
330.2 K	0.00139
333.2 K	0.00183
336.2 K	0.00236
339.2 K	0.00306
342.1 K	0.00383
345.2 K	0.00491
348.1 K	0.00628
351.2 K	0.00777
354.2 K	0.00982
357.2 K	0.01221
360.2 K	0.01474
363.2 K	0.01847
366.2 K	0.02305
369.2 K	0.02799
